Assay results as given in US9012439B2, “Use of electrophilic compounds for inducing platelet production or maintaining platelet function” (University of Rochester, priority 2007, dated 2015).

Experiments:
Meg-01 cells [1] = test: Platelet production from Meg-01 cells (flow cytometry); type: cell-based, human; details: for platelet production / effect of antioxidant pretreatment on 15d-PGJ2-induced platelet production: Meg-01 cells; for platelet production: 10 μM, 24 h; for effect of antioxidant pretreatment on 15d-PGJ2-induced platelet production: 5 mM GSH-EE or 1 mM NAC for 2 h, then 15d-PGJ2 24 h
Experimental: Meg-01 and M07e cells were purchased from the American Type Culture Collection (Rockville, Md.) and Dami cells were a generous gift from Dr. Patricia J. Simpson-Haidaris (University of Rochester). All cells were cultured in RPMI-1640 tissue culture medium (Invitrogen) supplemented with 5% fetal bovine serum (FBS; Invitrogen), 10 mM HEPES (N-2-hydroxyethylpiperazine-N′-2-ethanesulfonic acid; Sigma), 2 mM L-glutamine (Invitrogen), 4.5 g/L glucose (Invitrogen), and 50 μg/mL gentamicin (Invitrogen). M07e cells were also supplemented with 100 ng/mL of granulocyte monocyte-colony stimulating factor (GM-CSF, R&D Systems). All treatments were performed in normal growth media. Dimethyl sulfoxide (DMSO) was used as a vehicle (control) in the experiments described below.
Platelets were isolated from megakaryocytes by centrifugation at 150 xg for 10 min. Supernatants underwent sequential centrifugation (500 xg for 10 min and 1000×g for 10 min). The remaining platelet pellet was fixed then permeabilized with a CD61 or CD41 antibody. 7-AAD (BD Pharmingen) was added for 10 min before analyzing the cells by flow cytometry. Platelets were identified using three well-described parameters (Patel et al., “The Biogenesis of Platelets from Megakaryocyte Proplatelets,” J Clin Invest 115:3348-3354 (2005); Breton-Gorius et al., “Expression of Platelet Proteins During the In Vitro and In Vivo Differentiation of Megakaryocytes and Morphological Aspects of Their Maturation,” Semin Hematol 23:43-67 (1986); Ogura et al., “Establishment of a Novel Human Megakaryoblastic Leukemia Cell Line, MEG-01, With Positive Philadelphia Chromosome,” Blood 66:1384-1392 (1985) and Franks et al., “A Fluorescence Microscopy Method for Quantifying Levels of Prostaglandin Endoperoxide H Synthase-1 and CD-41 in MEG-01 Cells,” Biol Proced Online 3:54-63 (2001), each of which is hereby incorporated by reference in its entirety), size (using normal human platelets as a control), presence of CD61 or CD41 and lack of DNA as determined by the absence of 7-AAD staining Ten thousand platelet events were collected and platelets were quantified by rate (platelet events/second) (Chung et al., “Platelet Activation in Acute, Decompensated Congestive Heart Failure,” Thromb Res 120:709-713 (2007), which is hereby incorporated by reference in its entirety.
A 19 by target sequence was selected to knock down PPARγ. PPARγ was cloned downstream of the RNA polymerase III U6 promoter and subcloned into a FG12 lentiviral vector which expresses green fluorescent protein (GFP) under the Ubiquitin C promoter. HEK 293 cells expressing this siRNA PPARγ had reduced PPARγ protein levels. To make the lentivirus, HEK 293 cells were co-transfected with 3 plasmids: the envelope vector (CMV-VSVG), the transfer vector (FG12-shRNAPPAR), and the packaging construct (pCMVΔ89.2 (gag/pol proteins)). Viral supernatants were collected every 8 h for 2 days and concentrated by ultracentrifugation at 50,000×g for 2 h at 4° C. using a Beckman SW 28 rotor. Viral titers were determined by infection of HeLa cells with serial dilutions of the viral stocks. Meg-01 cells were infected at a multiplicity of infection (MOI) of 20. After 48 h, approximately 56% of the PPARγ siRNA cells were transduced as determined by flow cytometry. The GFP positive (+) cells were then sorted by FACS and grown in RPMI with 5% FBS.

[2] = tested on: primary human megakaryocytes; test: Platelet production from human cord blood CD34+-derived megakaryocytes; type: cell-based; details: primary human megakaryocytes; 5 mM GSH-EE or 1 mM NAC for 2 h, then 15d-PGJ2 24 h
Experimental: Human CD34+ cord blood cells were obtained from the National Disease Research Interchange (NDRI, Philadelphia, Pa.). Cells were plated at 2.5×10^5 cells per well in a 12-well plate and cultured in serum-free medium as previously described (Zeuner et al., “Chemotherapy-induced Thrombocytopenia Derives from the Selective Death of Megakaryocyte Progenitors and Can Be Rescued by Stem Cell Factor,” Cancer Res 67:4767-4773 (2007), which is hereby incorporated by reference in its entirety) and supplemented with 100 ng/mL of rhTPO. After 14 days in culture, megakaryocytes were identified by staining with a CD61-FITC antibody and analyzed on a BD Biosciences FACSCalibur flow cytometer. Data were analyzed using FlowJo software (Treestar, Ashland, Oreg.). Cell images were captured using an inverted microscope (Olympus IX81). Platelets were isolated from megakaryocytes by centrifugation at 150 xg for 10 min. Supernatants underwent sequential centrifugation (500 xg for 10 min and 1000×g for 10 min). The remaining platelet pellet was fixed then permeabilized with a CD61 or CD41 antibody. 7-AAD (BD Pharmingen) was added for 10 min before analyzing the cells by flow cytometry. Platelets were identified using three well-described parameters (Patel et al., “The Biogenesis of Platelets from Megakaryocyte Proplatelets,” J Clin Invest 115:3348-3354 (2005); Breton-Gorius et al., “Expression of Platelet Proteins During the In Vitro and In Vivo Differentiation of Megakaryocytes and Morphological Aspects of Their Maturation,” Semin Hematol 23:43-67 (1986); Ogura et al., “Establishment of a Novel Human Megakaryoblastic Leukemia Cell Line, MEG-01, With Positive Philadelphia Chromosome,” Blood 66:1384-1392 (1985) and Franks et al., “A Fluorescence Microscopy Method for Quantifying Levels of Prostaglandin Endoperoxide H Synthase-1 and CD-41 in MEG-01 Cells,” Biol Proced Online 3:54-63 (2001), each of which is hereby incorporated by reference in its entirety), size (using normal human platelets as a control), presence of CD61 or CD41 and lack of DNA as determined by the absence of 7-AAD staining Ten thousand platelet events were collected and platelets were quantified by rate (platelet events/second) (Chung et al., “Platelet Activation in Acute, Decompensated Congestive Heart Failure,” Thromb Res 120:709-713 (2007), which is hereby incorporated by reference in its entirety.

Meg-01 cells [3] = test: Reactive oxygen species production in Meg-01 cells (carboxy-H2DCFDA, MitoSOX Red); type: cell-based, human; details: for effect of antioxidant pretreatment on 15d-PGJ2 ROS induction: Meg-01 cells, pretreatment before 15d-PGJ2; for percentage of Meg-01 cells that produce mitochondrial superoxide (MitoSOX Red): 10 μM
Experimental: Ten μM carboxy-H2DCFDA was added to cells for 20 min at RT. The cells were washed and immediately analyzed by flow cytometry. Five μM of MitoSOX Red dye in HBSS containing Mg^2+ and Ca^2+ was added to the cells for 15 min at 37° C. The cells were washed in HBSS and analyzed by flow cytometry.

[4] = tested on: primary human megakaryocytes; test: Reactive oxygen species production in primary human megakaryocytes; type: cell-based; details: pretreatment before 15d-PGJ2
Experimental: Human CD34+ cord blood cells were obtained from the National Disease Research Interchange (NDRI, Philadelphia, Pa.). Cells were plated at 2.5×10^5 cells per well in a 12-well plate and cultured in serum-free medium as previously described (Zeuner et al., “Chemotherapy-induced Thrombocytopenia Derives from the Selective Death of Megakaryocyte Progenitors and Can Be Rescued by Stem Cell Factor,” Cancer Res 67:4767-4773 (2007), which is hereby incorporated by reference in its entirety) and supplemented with 100 ng/mL of rhTPO. After 14 days in culture, megakaryocytes were identified by staining with a CD61-FITC antibody and analyzed on a BD Biosciences FACSCalibur flow cytometer. Data were analyzed using FlowJo software (Treestar, Ashland, Oreg.). Cell images were captured using an inverted microscope (Olympus IX81). Ten μM carboxy-H2DCFDA was added to cells for 20 min at RT. The cells were washed and immediately analyzed by flow cytometry. Five μM of MitoSOX Red dye in HBSS containing Mg^2+ and Ca^2+ was added to the cells for 15 min at 37° C. The cells were washed in HBSS and analyzed by flow cytometry.

CCCCC[C@H](O)/C=C/[C@@H]1[C@H]2C/C(=C/CCCC(=O)O)O[C@H]2C[C@H]1O [PGI2]
platelet production (Meg-01 cells [1]): failed to enhance platelet production

CC(=O)N[C@@H](CS)C(=O)O [NAC, N-acetylcysteine, reference compound]
effect of antioxidant pretreatment on 15d-PGJ2-induced platelet production (Meg-01 cells [1]): attenuate 15d-PGJ2-induced platelet production | effect of antioxidant pretreatment on 15d-PGJ2-induced platelet production [2]: attenuate 15d-PGJ2-induced platelet production | effect of antioxidant pretreatment on 15d-PGJ2 ROS induction (Meg-01 cells [3]): attenuated both ROS induction and platelet formation | effect of antioxidant pretreatment on 15d-PGJ2 ROS induction [4]: attenuated both ROS induction and platelet formation

CCCCC[C@H](O)/C=C/[C@@H]1[C@@H](C/C=C\CCCC(=O)O)[C@@H](O)C[C@H]1O [PGF2α]
platelet production (Meg-01 cells [1]): failed to enhance platelet production

CCCCC[C@H](O)/C=C/[C@H]1[C@H](O)CC(=O)[C@@H]1C/C=C\CCCC(=O)O [PGE2]
platelet production (Meg-01 cells [1]): failed to enhance platelet production

CCCCC[C@H](O)/C=C/[C@H]1C(=O)C=C[C@@H]1C/C=C\CCCC(=O)O [PGJ2]
platelet production (Meg-01 cells [1]): enhanced Meg-01 platelet production | percentage of Meg-01 cells that produce mitochondrial superoxide (MitoSOX Red) (Meg-01 cells [3]; 1 h): 33% | percentage of Meg-01 cells that produce mitochondrial superoxide (MitoSOX Red) (Meg-01 cells [3]; 6 h): 25% | percentage of Meg-01 cells that express ROS (carboxy-H2DCFDA) (Meg-01 cells [3]; 1 h): 65% | percentage of Meg-01 cells that express ROS (carboxy-H2DCFDA) (Meg-01 cells [3]; 6 h): 76%

CCOC(=O)CNC(=O)[C@H](CS)NC(=O)CC[C@H](N)C(=O)O [GSH-EE, glutathione reduced ethyl ester, reference compound]
effect of antioxidant pretreatment on 15d-PGJ2-induced platelet production (Meg-01 cells [1]): attenuate 15d-PGJ2-induced platelet production | effect of antioxidant pretreatment on 15d-PGJ2-induced platelet production [2]: attenuate 15d-PGJ2-induced platelet production | effect of antioxidant pretreatment on 15d-PGJ2 ROS induction (Meg-01 cells [3]): attenuated both ROS induction and platelet formation | effect of antioxidant pretreatment on 15d-PGJ2 ROS induction [4]: attenuated both ROS induction and platelet formation

O=C(Nc1ccccc1)c1cc([N+](=O)[O-])ccc1Cl [GW9662]
blocking of 15d-PGJ2-enhanced platelet production (Meg-01 cells [1]; Meg-01 cells pre-treated 2 h with 100 nM GW9662, then 15d-PGJ2 24 h): not blocked
